Experimental findings from article PMC4084896 (PLoS ONE, 2014) are described below.

Values after ≈ are worked out from the molar mass of the structure shown.

One series concerns AZ-AHR cells. As to the kind of experiment: MTT cytotoxicity test in AZ-AHR cells. Format: cell-based, human. The settings on record: 24 h incubation, six passages; read-out: AZ-AHR viability - MTT IC50. The text has this: (§1) A stably transfected gene reporter cell line AZ-AHR, derived from human hepatoma HepG2 cells transfected with a construct containing several AhR binding sites upstream of a luciferase reporter gene, was used for assessment of AhR transcriptional activity. A stably transfected gene reporter cell line AZ-GR, derived from human cervix carcinoma HeLa cells transfected with a construct containing several GR response elements upstream of a luciferase reporter gene, was used for assessment of GR transcriptional activity. Cells were incubated for 24 h with tested compounds and/or vehicle (DMSO; 0.1% v/v), in the presence or absence of TCDD (5 nM; AZ-AHR cells) or DEX (100 nM; AZ-GR cells). After the treatments, cells were lysed and luciferase activity was measured. In parallel, cell viability was determined by conventional MTT test.
(§2) Prior to the agonist or antagonist experiments, the cytotoxicity of tested compounds was assessed using the conventional MTT assay. […] The vehicle was DMSO (0.1% v/v). After the treatment, a MTT test was performed.

Series [1] concerns primary human hepatocytes. As to the kind of experiment: MTT cytotoxicity test in primary human hepatocytes. Format: cell-based. Particulars: 50 µM, 24 h.
Description: as §1
(§3) The cells were treated for 24 h with (+)-KET, (−)-KET and commercial rac-KET (1 µM, 30 µM, 50 µM), and with TCDD (5 nM) and vehicle (DMSO; 0.1% V/V). […] In the cytotoxicity assay, we found all forms of KET highly toxic against human hepatocytes at the concentration 50 µM.

The next series addresses T1, AhR (Mus musculus, UniProt P30561).
T1 construct: endogenous in cells; host or cells: mouse hepatoma Hepa-1c1c7 cells (living cells treated 2 h, then nuclear extracts made)
As to the kind of experiment: EMSA with nuclear extracts from Hepa-1c1c7 cells (AhR-ARNT-DRE complex). Format: cell-based. Particulars: Hepa-1c1c7 nuclear extracts, 50 µM, 2 h. The protocol:
Electrophoretic mobility shift assay was performed in guinea pig cytosol and nuclear extract from mouse hepatoma cells. Hepa-1c1c7 cells were incubated for 2 h with tested compounds. Nuclear extracts procedure and EMSA analysis was performed as previously described (Soshilov & Denison; 2014). Guinea pig hepatic cytosol (8 mg/mL in HEDG) was incubated for 2 h in a room temperature water bath with tested compounds. An aliquot of the reaction was mixed with poly[dI•dC] and [^32P]-DRE (100.000 cpm), and AHR:DRE:[^32P]DRE complexes were resolved by gel retardation analysis, visualized by autoradiography and quantified by phosphorimager analysis (FujiFilm) of the dried gels.
We carried out the electrophoretic mobility shift assay (EMSA) to reveal whether effects of KET on AhR-CYP1A pathway involve transformation of AhR to DNA binding form, and whether these effects are enantiospecific. For this purpose, EMSA was performed in two experimental systems: (i) Hepatic guinea pig cytosol was treated for 2 hours with DMSO, 20 nM TCDD, (+)-KET, (−)-KET and commercial rac-KET (from Sigma) at 10 µM, 30 µM and 50 µM. All forms of KET transformed AhR to DNA binding form, but the activation was very weak and not statistically above background. There was a slightly stronger effect of (+)-KET and rac-KET as compared to (−)-KET, but the difference was not significant (Figure 4A). (ii) Since we obtained only weak signals in guinea pig liver cytosols, we also analyzed nuclear extracts from mouse hepatoma Hepa-1c1c7 cells treated for 2 hours with DMSO, TCDD (10 nM), (+)-KET (50 µM), (−)-KET (50 µM), commercial rac-KET (Sigma; 50 µM) or an equimolar mix of (+)/(−) enantiomers (50 µM total). […] The effects of (−)-KET were slightly stronger as compared to (+)-KET. […] In addition, we observed formation of the second band with lower molecular weight than AhR-ARNT-DRE, by purified KET enantiomers but not by TCDD and commercial KET.

The subject of the next series is C. albicans 1. As to the kind of experiment: MIC assessment, microdilution. Format: cell-based. The settings on record: 48 h, 37°C, MFC same as MIC. As to the method: (§4) Antifungal activity was assessed using the standard microdilution method determining the minimum inhibitory concentrations (MICs) of the tested samples leading to inhibition of yeast growth. Disposable microtiter plates were used for the tests. The samples were diluted in brain heart infusion broth (HiMedia). […] C. albicans, C. krusei, C. tropicalis and C. parapsilosis. […] Subsequently, 100 µL were transferred into the first microplate well and serially diluted by a factor of 2. The prepared microplates were inoculated with a standard amount of the tested Candida spp. – the inoculum density in a well was equal to 10^5 CFU/mL. […] The minimum fungicidal concentration (MFC) is the minimum concentration of the sample required to kill the yeast after a defined period of incubation. The MFCs were determined by the inoculation method. With an applicator, 10 µL were transferred from the microplate wells with defined concentrations of the tested sample and inoculated onto Sabouraud agar (Trios). The MFC was determined as the lowest concentration that inhibited the visible growth of the used yeast. For growth curve assessment, the samples were serially diluted in 96-well microtiter plates. […] Absorbance (630 nm) was measured every hour during 24 hours and the obtained values were used to plot growth curves
Background: In broth dilution the organism is exposed to a series of concentrations in liquid medium.

In a further series the test system is C. albicans 978. As to the kind of experiment: MIC assessment, microdilution. Format: cell-based. The settings on record: 48 h, 37°C, MFC same as MIC. The protocol: as §4
For the next series, the system named is C. tropicalis 5. Put plainly: MIC assessment, microdilution. Format: cell-based. Particulars: 48 h, 37°C, MFC same as MIC. The protocol: as §4
A short description of series [2]: MTT cytotoxicity test in AZ-AHR cells. Particulars: human; 24 h incubation, six passages; read-out: AZ-AHR viability - MTT IC50. Format: cell-based, human.
Description: as §1, §2

Series [3] is described as follows: MTT cytotoxicity test in primary human hepatocytes. Format: cell-based. Particulars: primary human hepatocytes, read-out: viability, % of control value.
Description: as §1, §3
(Formazan colour is commonly taken as a measure of viable cells.)

In series [4] the test system is CYP1A1 catalytic activity (7-ethoxyresorufin-O-deethylase).

T1 sequence (P30561 10-805 limits assumed): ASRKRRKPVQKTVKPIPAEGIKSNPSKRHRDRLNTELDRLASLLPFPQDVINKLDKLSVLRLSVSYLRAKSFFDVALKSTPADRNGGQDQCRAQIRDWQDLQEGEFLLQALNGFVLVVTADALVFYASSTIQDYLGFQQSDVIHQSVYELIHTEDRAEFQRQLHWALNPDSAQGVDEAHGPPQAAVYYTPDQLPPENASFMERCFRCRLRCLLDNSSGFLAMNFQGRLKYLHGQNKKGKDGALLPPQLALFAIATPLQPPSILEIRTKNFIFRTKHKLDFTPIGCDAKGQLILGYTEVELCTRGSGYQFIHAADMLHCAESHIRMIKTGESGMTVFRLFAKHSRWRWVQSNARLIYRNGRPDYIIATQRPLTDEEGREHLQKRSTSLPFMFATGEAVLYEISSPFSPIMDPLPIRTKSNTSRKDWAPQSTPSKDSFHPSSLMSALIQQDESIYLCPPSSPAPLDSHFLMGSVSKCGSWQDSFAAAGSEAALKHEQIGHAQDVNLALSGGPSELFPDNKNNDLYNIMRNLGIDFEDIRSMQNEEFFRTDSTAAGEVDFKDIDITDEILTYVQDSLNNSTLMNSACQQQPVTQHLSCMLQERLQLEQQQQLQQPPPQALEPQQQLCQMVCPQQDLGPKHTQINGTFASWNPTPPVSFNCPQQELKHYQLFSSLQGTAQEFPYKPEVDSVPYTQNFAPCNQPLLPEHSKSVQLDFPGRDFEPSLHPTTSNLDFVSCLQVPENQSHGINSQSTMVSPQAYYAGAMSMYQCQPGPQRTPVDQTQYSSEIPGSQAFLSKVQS
T1 sequence (P53762 whole entry partner): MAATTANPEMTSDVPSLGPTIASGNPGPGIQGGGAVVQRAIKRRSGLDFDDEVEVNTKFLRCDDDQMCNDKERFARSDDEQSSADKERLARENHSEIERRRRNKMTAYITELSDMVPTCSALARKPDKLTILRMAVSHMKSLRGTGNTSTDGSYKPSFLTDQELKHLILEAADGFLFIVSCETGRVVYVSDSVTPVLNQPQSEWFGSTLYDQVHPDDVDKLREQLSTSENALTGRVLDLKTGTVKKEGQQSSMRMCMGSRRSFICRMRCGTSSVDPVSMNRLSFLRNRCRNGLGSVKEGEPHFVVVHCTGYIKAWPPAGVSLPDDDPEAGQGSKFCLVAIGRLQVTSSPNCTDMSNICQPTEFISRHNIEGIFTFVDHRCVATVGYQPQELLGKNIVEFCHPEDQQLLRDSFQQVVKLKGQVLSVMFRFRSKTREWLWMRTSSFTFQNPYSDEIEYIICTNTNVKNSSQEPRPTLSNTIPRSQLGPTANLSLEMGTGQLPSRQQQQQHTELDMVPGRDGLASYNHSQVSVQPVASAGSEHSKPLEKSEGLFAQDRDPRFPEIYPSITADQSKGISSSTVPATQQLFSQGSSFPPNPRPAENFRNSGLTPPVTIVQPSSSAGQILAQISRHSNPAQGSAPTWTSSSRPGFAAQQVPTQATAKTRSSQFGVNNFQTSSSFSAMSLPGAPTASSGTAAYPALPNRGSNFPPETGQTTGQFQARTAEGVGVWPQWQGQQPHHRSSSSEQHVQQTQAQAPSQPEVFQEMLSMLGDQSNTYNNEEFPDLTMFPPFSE

For orientation: IC50 means the concentration that gives 50% inhibition. Regarding `CC(=O)N1CCN(c2ccc(OC[C@H]3CO[C@](Cn4ccnc4)(c4ccc(Cl)cc4Cl)O3)cc2)CC1` [(+)-KET, (2R,4S)-(+)-KET], the IC50 in the series on AZ-AHR cells was 77.3 ± 23.9 µM. Further, the “viability, % of control value” in series [1] is on record as 15%. The “transformation of AhR to DNA binding form (in words)” value on AhR is reported as “only weakly transformed”. In addition, the MIC/MFC against C. albicans 1 came out at 25 µM (≈ 13.3 µg/mL); against C. albicans 978, 25 µM (≈ 13.3 µg/mL); with C. tropicalis 5, 3.13 µM (≈ 1.66 µg/mL).
A word on the viability: it is the share of living cells, or the viability signal relative to a control. Regarding `CC(=O)N1CCN(c2ccc(OCC3COC(Cn4ccnc4)(c4ccc(Cl)cc4Cl)O3)cc2)CC1` (racemic) [rac-KET, ketoconazole], in [2], the IC50 at 24 h came out at 67.2 ± 24.8 µM. In addition, in series [3], the viability at 24 h, 50 µM came out at 46%. Besides, the “formation of AhR-ARNT-DRE complex, % of TCDD effects” value at AhR (TCDD 10 nM) is on record as “approx. 60%”. Also, the “EROD activity (in words)” value in series [4] is “increased the EROD activity in a concentration-dependent manner”.
